{
  "source": "patent US20080318775A1",
  "about": "“Safening of pesticides with cyclopropenes” (priority 2007, published 2008)",
  "key": {"[1]": {"system": "GLYPHOSATE-resistant soybeans", "assay": "Plant height of soybeans sprayed with 2% GLYPHOSATE with or without 1-MCP"}, "[2]": {"system": "GLYPHOSATE-resistant soybeans", "settings": "in vivo"}, "[3]": {"system": "GLYPHOSATE-resistant soybeans", "assay": "Plant height of soybeans sprayed with 0.05% PHYSAN 20 fungicide/antimicrobial agent with or without 1-MCP", "assay_type": "in vivo", "settings": "10 ppm 1-MCP with 0.05% PHYSAN 20; plant height after 21 days"}, "[4]": {"system": "GLYPHOSATE-resistant soybeans", "settings": "in vivo", "remark": "listed apart in the source"}, "[5]": {"system": "GLYPHOSATE-resistant soybeans", "assay": "Plant height of soybeans sprayed with 0.5% GLYPHOSATE with or without 1-MCP"}},
  "note": "Read-outs that look alike come from different tables or passages of the source.",
  "data": [
    {"compound": "CC1=CC1", "note": "[1-MCP, 1-methylcyclopropene]", "values": [
      {"measurement": "Effect on plant height / effect of the herbicide (in words)", "setting": "[1]; 10 ppm 1-MCP with 2% GLYPHOSATE, with or without 0.1% Quillaja Saponin adjuvant, plant height after 21 days", "value": "improved the height"},
      {"measurement": "Effect on the negative effect of the fertilizer on plant growth (in words)", "setting": "[2]", "value": "able to alleviate some of that effect"},
      {"measurement": "Effect compared to the fungicide-treated plants (in words)", "setting": "[3]", "value": "positive effect"},
      {"measurement": "Effect on setback caused by the insecticide (in words)", "setting": "[4]", "value": "able to mediate some of the setback caused by the insecticide"},
      {"measurement": "Effect on growth reduction caused by the herbicide (in words)", "setting": "[5]; 10 ppm 1-MCP with 0.5% GLYPHOSATE, plant height after 21 days", "value": "able to prevent the growth reduction caused by the herbicide"}
    ]},
    {"compound": "CNC(=O)Oc1cccc2ccccc12", "note": "[CARBARYL, reference compound]", "values": [
      {"measurement": "Plant Height", "setting": "[4]", "value": 112.8}
    ]},
    {"compound": "O=C(O)CNCP(=O)(O)O", "note": "[GLYPHOSATE, reference compound]", "values": [
      {"measurement": "Plant Height", "setting": "[1]; greenhouse, sprayed to run off at second true leaves, 2% GLYPHOSATE, 10 ppm 1-MCP (as α-cyclodextrin complex), adjuvant 0.1% Quillaja Saponin, 21 days after spray, untreated control 126", "value": 112.9},
      {"measurement": "Plant Height", "setting": "[5]; greenhouse, sprayed to run off at second true leaves, 0.5% GLYPHOSATE, 10 ppm 1-MCP (as α-cyclodextrin complex), adjuvant 0.1% Quillaja Saponin, 21 days after spray, untreated control 126", "value": 112.1}
    ]}
  ]
}
